According to patent publication US20140213513A1 (Sanofi, priority 2012, published 2014):
*1 amine or outer side, *2 acyl side, *3 side chain or, on linkers, in order; H or OH if unused. Where a SMILES comes first, the peptide text is derived from it. Side-chain parts run from the residue outwards. [ ]: non-standard residue; d: D form. The star is where a group is joined. γGlu = O=C(O)[C@H](CCC(=O)[*:2])N[*:1]; Stearoyl = CCCCCCCCCCCCCCCCCC(=O)*; Palmitoyl = CCCCCCCCCCCCCCCC(=O)*; Aib = CC(C)(N)C(=O)O

How the values were obtained:
Type in all cases: cell-based
Conditions in all cases: Table 7; cAMP formation
[1] = molecular target: T1, human GLP-1 receptor (hGLP-1 R) (Homo sapiens, UniProt P43220); test: cAMP response of HEK-293 cells stably expressing human GLP-1 receptor (HTRF)
T1 construct: expressed in transfected cells
Outline: (§1)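 HEK-293 cells stably expressing the receptor were resuspended at 400000 cells/ml in HBSS/20 mM HEPES/0.1% BSA buffer with 2 mM IBMX. Cells were stimulated with compound for 30 min at room temperature. Intracellular cAMP was measured by HTRF.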

[2] = molecular target: T2, human GIP receptor (hGIP R) (Homo sapiens, UniProt P48546); test: cAMP response of HEK-293 cells stably expressing human GIP receptor (HTRF)
T2 construct: expressed in transfected cells
T2 sequence (P48546 22-466): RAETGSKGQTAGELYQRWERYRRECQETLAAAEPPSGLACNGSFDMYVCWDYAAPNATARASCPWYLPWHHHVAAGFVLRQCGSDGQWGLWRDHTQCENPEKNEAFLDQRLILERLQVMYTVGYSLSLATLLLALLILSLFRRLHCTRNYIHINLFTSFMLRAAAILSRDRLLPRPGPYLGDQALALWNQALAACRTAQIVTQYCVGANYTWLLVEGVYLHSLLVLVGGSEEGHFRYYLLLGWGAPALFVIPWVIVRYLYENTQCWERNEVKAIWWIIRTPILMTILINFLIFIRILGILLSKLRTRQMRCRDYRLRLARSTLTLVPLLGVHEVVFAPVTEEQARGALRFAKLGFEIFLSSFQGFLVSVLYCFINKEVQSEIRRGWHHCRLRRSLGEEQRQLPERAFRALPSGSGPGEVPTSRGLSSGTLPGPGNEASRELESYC
Outline: as §1

[3] = molecular target: T3, human glucagon receptor (hGLUC R) (Homo sapiens, UniProt P47871); test: cAMP response of HEK-293 cells stably expressing human glucagon receptor (HTRF)
T3 construct: expressed in transfected cells
Outline: as §1

T3 sequence (P47871 26-477): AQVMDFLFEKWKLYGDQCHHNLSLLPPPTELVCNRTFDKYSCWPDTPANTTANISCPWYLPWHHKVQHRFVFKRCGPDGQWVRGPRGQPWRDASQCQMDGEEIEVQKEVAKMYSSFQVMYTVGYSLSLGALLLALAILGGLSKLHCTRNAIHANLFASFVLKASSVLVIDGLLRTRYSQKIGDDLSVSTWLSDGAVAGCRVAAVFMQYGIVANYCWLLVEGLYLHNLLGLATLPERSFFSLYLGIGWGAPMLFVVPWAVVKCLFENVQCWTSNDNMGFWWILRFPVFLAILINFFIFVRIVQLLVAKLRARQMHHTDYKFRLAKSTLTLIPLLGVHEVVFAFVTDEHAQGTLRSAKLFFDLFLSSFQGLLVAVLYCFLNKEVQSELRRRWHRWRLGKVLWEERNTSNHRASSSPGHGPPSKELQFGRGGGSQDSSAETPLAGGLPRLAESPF
T1 sequence (P43220 24-463): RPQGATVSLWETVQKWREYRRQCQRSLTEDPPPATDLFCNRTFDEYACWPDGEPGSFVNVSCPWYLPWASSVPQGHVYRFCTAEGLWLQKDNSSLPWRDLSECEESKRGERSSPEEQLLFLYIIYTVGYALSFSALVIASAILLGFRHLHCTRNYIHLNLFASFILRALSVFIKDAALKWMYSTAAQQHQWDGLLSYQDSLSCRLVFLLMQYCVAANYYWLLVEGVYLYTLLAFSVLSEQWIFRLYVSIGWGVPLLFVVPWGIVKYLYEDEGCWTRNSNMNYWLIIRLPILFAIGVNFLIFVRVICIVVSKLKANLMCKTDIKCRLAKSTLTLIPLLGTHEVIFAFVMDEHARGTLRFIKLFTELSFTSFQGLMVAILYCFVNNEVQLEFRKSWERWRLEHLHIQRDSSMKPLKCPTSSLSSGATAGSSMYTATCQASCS

Molecule `CCCCCCCCCCCCCCCCCC(=O)N[C@@H](CCC(=O)NCCCC[C@H](NC(=O)[C@H](CCC(N)=O)NC(=O)[C@@H](NC(=O)[C@H](CO)NC(=O)[C@H](CC(C)C)NC(=O)[C@H](CC(=O)O)NC(=O)[C@H](CO)NC(=O)[C@@H](NC(=O)[C@H](Cc1ccccc1)NC(=O)[C@@H](NC(=O)CNC(=O)[C@H](CCC(=O)O)NC(=O)C(C)(C)NC(=O)[C@@H](N)Cc1ccc(O)cc1)[C@@H](C)O)[C@@H](C)O)[C@@H](C)CC)C(=O)N[C@@H](CCC(=O)O)C(=O)N[C@@H](CO)C(=O)N[C@@H](CCCCN)C(=O)N[C@@H](C)C(=O)N[C@@H](C)C(=O)N[C@@H](Cc1c[nH]cn1)C(=O)N[C@@H](CCC(=O)O)C(=O)N[C@@H](Cc1ccccc1)C(=O)N[C@H](C(=O)N[C@@H](CCC(=O)O)C(=O)N[C@@H](Cc1c[nH]c2ccccc12)C(=O)N[C@@H](CC(C)C)C(=O)N[C@@H](CCCCN)C(=O)N[C@@H](C)C(=O)NCC(=O)NCC(=O)N1CCC[C@H]1C(=O)N[C@@H](CO)C(=O)N[C@@H](CO)C(=O)NCC(=O)N[C@@H](C)C(=O)N1CCC[C@H]1C(=O)N1CCC[C@H]1C(=O)N1CCC[C@H]1C(=O)N[C@@H](CO)C(=O)N[C@@H](CCCCN)C(N)=O)[C@@H](C)CC)C(=O)O` [SEQ ID NO: 58, Y-Aib-E-G-T-F-T-S-D-L-S-I-Q-K(yE-x70)-ESKAAHEFIEWLKAGGPSSGAPPPSK-NH2] (H-Y[Aib]EGTFTSDLSIQK([γGlu-Stearoyl])ESKAAHEFIEWLKAGGPSSGAPPPSK-NH2) has an EC50 [1] of 12.5 pM, an EC50 [2] of 8.6 pM and an EC50 [3] of 16000 pM.
`CCCCCCCCCCCCCCCC(=O)N[C@@H](CCC(=O)NCCCC[C@H](NC(=O)[C@H](CCC(N)=O)NC(=O)[C@@H](NC(=O)[C@H](CO)NC(=O)[C@H](CC(C)C)NC(=O)[C@H](CC(=O)O)NC(=O)[C@H](CO)NC(=O)[C@@H](NC(=O)[C@H](Cc1ccccc1)NC(=O)[C@@H](NC(=O)CNC(=O)[C@H](CCC(N)=O)NC(=O)C(C)(C)NC(=O)[C@@H](N)Cc1ccc(O)cc1)[C@@H](C)O)[C@@H](C)O)[C@@H](C)CC)C(=O)N[C@@H](CC(=O)O)C(=O)N[C@@H](CO)C(=O)N[C@@H](CCCNC(=N)N)C(=O)N[C@@H](C)C(=O)N[C@@H](CCC(N)=O)C(=O)N[C@@H](CCC(N)=O)C(=O)N[C@@H](CC(=O)O)C(=O)N[C@@H](Cc1ccccc1)C(=O)N[C@H](C(=O)N[C@@H](CCC(=O)O)C(=O)N[C@@H](Cc1c[nH]c2ccccc12)C(=O)N[C@@H](CC(C)C)C(=O)N[C@@H](CCCCN)C(=O)N[C@@H](C)C(=O)NCC(=O)NCC(=O)N1CCC[C@H]1C(=O)N[C@@H](CO)C(=O)N[C@@H](CO)C(=O)NCC(=O)N[C@@H](C)C(=O)N1CCC[C@H]1C(=O)N1CCC[C@H]1C(=O)N1CCC[C@H]1C(=O)N[C@@H](CO)C(N)=O)[C@@H](C)CC)C(=O)O` [SEQ ID NO: 51, Y-Aib-Q-G-T-F-T-S-D-L-S-I-Q-K(yE-x53)-DSRAQQDFIEWLKAGGPSSGAPPPS-NH2] (H-Y[Aib]QGTFTSDLSIQK([γGlu-Palmitoyl])DSRAQQDFIEWLKAGGPSSGAPPPS-NH2) was tested, and the EC50 [1] was 4.2 pM, the EC50 [2] was 6.3 pM and the EC50 [3] was 571 pM.
`CCCCCCCCCCCCCCCC(=O)N[C@@H](CCC(=O)NCCCC[C@H](NC(=O)[C@H](CCC(N)=O)NC(=O)[C@@H](NC(=O)[C@H](CO)NC(=O)[C@H](CC(C)C)NC(=O)[C@H](CC(=O)O)NC(=O)[C@H](CO)NC(=O)[C@@H](NC(=O)[C@H](Cc1ccccc1)NC(=O)[C@@H](NC(=O)CNC(=O)[C@H](CCC(N)=O)NC(=O)C(C)(C)NC(=O)[C@@H](N)Cc1ccc(O)cc1)[C@@H](C)O)[C@@H](C)O)[C@@H](C)CC)C(=O)N[C@@H](CCC(=O)O)C(=O)N[C@@H](CCCCN)C(=O)N[C@@H](CCCNC(=N)N)C(=O)N[C@@H](C)C(=O)N[C@@H](C)C(=O)N[C@@H](CC(C)C)C(=O)N[C@@H](CCC(=O)O)C(=O)N[C@@H](Cc1ccccc1)C(=O)N[C@H](C(=O)N[C@@H](CCC(=O)O)C(=O)N[C@@H](Cc1c[nH]c2ccccc12)C(=O)N[C@@H](CC(C)C)C(=O)N[C@@H](CCCCN)C(=O)N[C@@H](CC(N)=O)C(=O)N[C@H](C(=O)NCC(=O)N1CCC[C@H]1C(=O)N[C@@H](CO)C(=O)N[C@@H](CO)C(=O)NCC(=O)N[C@@H](C)C(=O)N1CCC[C@H]1C(=O)N1CCC[C@H]1C(=O)N1CCC[C@H]1C(=O)N[C@@H](CO)C(N)=O)[C@@H](C)O)[C@@H](C)CC)C(=O)O` [SEQ ID NO: 33, Y-Aib-Q-G-T-F-T-S-D-L-S-I-Q-K(yE-x53)-EKRAALEFIEWLKNTGPSSGAPPPS-NH2] (H-Y[Aib]QGTFTSDLSIQK([γGlu-Palmitoyl])EKRAALEFIEWLKNTGPSSGAPPPS-NH2) gave an EC50 [1] of 8.1 pM, an EC50 [2] of 88.2 pM and an EC50 [3] of 109 pM.
In the case of `CCCCCCCCCCCCCCCC(=O)N[C@@H](CCC(=O)NCCCC[C@H](NC(=O)[C@H](CCC(N)=O)NC(=O)[C@@H](NC(=O)[C@H](CO)NC(=O)[C@H](CC(C)C)NC(=O)[C@H](CC(=O)O)NC(=O)[C@H](CO)NC(=O)[C@@H](NC(=O)[C@H](Cc1ccccc1)NC(=O)[C@@H](NC(=O)CNC(=O)[C@H](CCC(N)=O)NC(=O)C(C)(C)NC(=O)[C@@H](N)Cc1ccc(O)cc1)[C@@H](C)O)[C@@H](C)O)[C@@H](C)CC)C(=O)N[C@@H](CC(=O)O)C(=O)N[C@@H](CO)C(=O)N[C@@H](CCCNC(=N)N)C(=O)N[C@@H](CCCNC(=N)N)C(=O)N[C@@H](C)C(=O)N[C@@H](CCC(N)=O)C(=O)N[C@@H](CC(=O)O)C(=O)N[C@@H](Cc1ccccc1)C(=O)N[C@H](C(=O)N[C@@H](CCC(=O)O)C(=O)N[C@@H](Cc1c[nH]c2ccccc12)C(=O)N[C@@H](CC(C)C)C(=O)N[C@@H](CCCCN)C(=O)N[C@@H](C)C(=O)NCC(=O)NCC(=O)N1CCC[C@H]1C(=O)N[C@@H](CO)C(=O)N[C@@H](CO)C(=O)NCC(=O)N[C@@H](C)C(=O)N1CCC[C@H]1C(=O)N1CCC[C@H]1C(=O)N1CCC[C@H]1C(=O)N[C@@H](CO)C(N)=O)[C@@H](C)CC)C(=O)O` [SEQ ID NO: 52, Y-Aib-Q-G-T-F-T-S-D-L-S-I-Q-K(yE-x53)-DSRRAQDFIEWLKAGGPSSGAPPPS-NH2] (H-Y[Aib]QGTFTSDLSIQK([γGlu-Palmitoyl])DSRRAQDFIEWLKAGGPSSGAPPPS-NH2), the EC50 [1] is reported as 25.6 pM, the EC50 [2] is reported as 182 pM and the EC50 [3] is reported as 13.3 pM.
